# From patent US7276371B2, “Stimulation of hematopoietic cells in vitro” (Point Therapeutics, Inc., priority 1997, dated 2007)
# Legend:
# Isolated CD34+ cells = Isolated CD34+ cells (98% purity) of bone marrow, 4 day culture: growth stimulation and percent CD34+ remaining; format: cell-based, human
# Protocol: (§1) • 1. Obtain bone marrow or umbilical cord blood in heparinized (green top) tube. Can be stored at room temperature until use within 48 hours. • 2. Mix marrow/blood 1:1 with phosphate-buffered saline, pH 7.4(PBS) that has been stored at 4° C. • 3. Carefully layer blood-PBS mixture on a 2× volume quantity of Histopaque (Sigma) that has been stored at 4° C. • 4. Centrifuge at 400 g×20 minutes at 37° C. • 5. Carefully collect cells at interface and wash ×2 in cold PBS. • 6. Count viable cells using trypan blue. • 7. Set up cells as 1 ml cultures in plastic culture tubes (or 96 well or 24 well microtiter plates) at 10^4 cells/ml in CellGro Iscove's Modified Dulbecco's medium (Meditech) containing kanamycin (5 ug/ml), desired concentration of Xaa-boroPro or other compound of the invention, and the absence or presence of Giant Cell Tumor-Conditioned Medium (GCT-CM, Origen) as source of growth factors. Xaa-boroPro or other compounds of the invention should be diluted to medium and added to culture only after cells are in culture tube. • 8. Cells are cultured at 37° C. in a moist air incubator containing 5% CO2. • 9. At desired time, an aliquot of cells are removed and counted. • 10. Counting can be performed under the microscope (direct) or by using the MTT assay (colorimetric assay).
# CD34+ isolated cells = experiment: CD34+ cells isolated from umbilical cord blood, 4 day culture: cell number and percent CD34+ remaining; format: cell-based, human; settings: 10^−10M; isolated CD34+ cells (98% CD34+); control 0.6×10^6 cells
# Protocol: (§2) Umbilical cord blood cells were incubated under essentially the same conditions as described in the legend to FIG. 1, except that Val-boroPro was used as stimulant at the indicated concentrations. After 4 day incubation: • A: Bulk Umbilical Cord Blood; Total Cell Counts. Control culture: 0.2×10^6 cells; Growth factors 5×10^6 cells; Val-boroPro: 3×10^6 (10^−6M); 3×10^6 (10^−8M); 4×10^6 ([…]). • B: CD34+ isolated cells: CD34+ cells were isolated using CD34 mAb coupled beads for positive selection. Cell preparation contained 98% CD34+ cells. After 4 days of incubation the culture containing 10^−10M Val-boroPro contained 8.5×10^6 cells, compared to 0.6×10^6 cells in the control and 4×10^6 cells in the incubation with growth factors.
# C: Percent of CD34+ cells remaining after 4 day culture: Cultures incubated with Val-boroPro contained between 10 and 15% of CD34+ cells after 4 day culture. Cultures incubated with Growth Factors had only 4% of CD34+ cells remaining (panel b).
# • 1. Obtain bone marrow or umbilical cord blood in heparinized (green top) tube. Can be stored at room temperature until use within 48 hours. • 2. […] Carefully layer blood-PBS mixture on a 2× volume quantity of Histopaque (Sigma) that has been stored at 4° C. • 4. […] At desired time, an aliquot of cells are removed and counted. • 10. […]
# [1] = tested on: Umbilical cord blood cells; experiment: Bulk umbilical cord blood, total cell counts after 4 day incubation; format: cell-based; settings: control culture 0.2×10^6 cells
# Protocol: as §2, §1
# bone marrow cells = experiment: Bone marrow cell growth stimulation, 4 day culture without added cytokines, cell count; format: cell-based; settings: 10,000 bone marrow cells per well at start, IMDM, no growth factors, control 10,000 cells
# Protocol: Freshly isolated bone marrow cells were isolated and 10,000 cells per well were incubated in 96 microtiter plates in CellGro Iscove's Modified Dulbecco's Medium (IMDM) and with or without (control) the indicated concentrations of Pro-boroPro for 4 days. At the end of this incubation period, the cells were counted under the microscope. The cultures without Pro-boroPro contained 10,000 cells at the end of 4 days. The cultures containing Pro-boroPro had 53,000 cells at 10^−6M, 38,000 cells at 10^−8M and 42,000 cells at 10^−10 M. The cultures containing a growth factor mix (GF) contained 82,000 cells. Growth factors were supplied in OPITEN® Giant Cell Tumor-conditioned medium (IGEN)
# Cultures were set up as described in the legend to FIG. 1 except that Lys-boroPro and the homoconjugate were used, and incubated for 4 days.
# as §1, with “Counting can be performed under the microscope (direct) or by using the MTT assay (colorimetric assay).” left out
Structure (SMILES),"increase in stimulation of cellular growth over that in control cultures (Isolated CD34+ cells; 4 day culture, concentration not given)","Percent of CD34+ cells remaining in culture after a 4 day incubation period (Isolated CD34+ cells; isolated bone marrow CD34+ cells, control 63%)",number of cells after 4 days of incubation (CD34+ isolated cells),Total Cell Counts after 4 day incubation ([1]; 10^−6M),Total Cell Counts after 4 day incubation ([1]; 10^−8M),Total Cell Counts after 4 day incubation ([1]; 10^−M (so in the source)),number of cells at the end of 4 days (bone marrow cells; 10^−6M),number of cells at the end of 4 days (bone marrow cells; 10^−8M),number of cells at the end of 4 days (bone marrow cells; 10^−10 M)
CC(C)[C@H](N)C(=O)N1CCC[C@H]1B(O)O [Val-boroPro],up to 20 fold,43%,8.5×10^6 cells,3×10^6,3×10^6,4×10^6,–,–,–
O=C(C1CCCN1)N1CCCC1B(O)O (stereo not drawn) [Pro-boroPro],–,–,–,–,–,–,"53,000 cells","38,000 cells","42,000 cells"
